Structures can show the parent of a compound that is named as a salt.
Test: Sustained release of metformin hydrochloride, ranitidine hydrochloride, vitamin B1 and benzalkonium chloride from carrier formulations into purified water, UV absorbance
Type: physicochemical
Details: released when absorbance is increased less than 0.01
Text: • 1) Test samples: formulation 5, formulation 6, formulation 7, formulation 8, formulation 9; • 2) Drug release medium: purified water (Wahaha®).
• 1) group F where the sample is 0.1990 g of formulation 6 and the medium is 30.11 g of purified water; • 2) group G where the sample is 0.2016 g of formulation 5 and the medium is 30.14 g of purified water; • 3) group H where the sample is 0.2087 g of formulation 7 and the medium is 30.11 g of purified water; • 4) group I where the sample is 0.2016 g of formulation 8 and the medium is 30.12 g of purified water; • 5) group J where the sample is 0.0975 g of formulation 9 and the medium is 30.18 g of purified water.
• 1) The test samples with different formulations were respectively introduced into 2 mL-syringes. 2) About 0.2 g of the test samples, but for benzalkonium chloride about 0.1 g of the test sample, were squeezed out from the syringes without a needle into 30 mL transparent bottles respectively. The tests samples in the bottles were accurately weighed. 3) 30.0 g of the drug release medium was added to each bottle. 4) The absorbance spectrum of the liquid in each bottle was scanned and the absorbance at the wavelength of 232 nm for metformin hydrochloride, 313 nm for ranitidine hydrochloride, 261 nm for vitamin B1, or 219 nm for benzalkonium chloride was measured every 24 hours. 5) In groups H, I and J, the purified water (Wahaha®) was used as the reference solution. In groups F and G, blank carriers in formulations 2 and 3 without metformin hydrochloride were used to prepare the reference solutions according to the above steps 1) to 3) of “4. Experimental method”. The liquids to be tested and the reference solutions of groups F and G were taken from the bottles with the carriers and put back to the bottles after the spectral scanning.

Duration of release of the drug from the sustained-release carriers | Molecule
about 3 days | CN(C)C(=N)N=C(N)N [metformin hydrochloride]
about 4 days | Cc1ncc(C[n+]2csc(CCO)c2C)c(N)n1 [vitamin B1]
about 4 days | benzalkonium chloride
about 4 days | CNC(=C[N+](=O)[O-])NCCSCc1ccc(CN(C)C)o1 [ranitidine hydrochloride]

From patent US20240122844A1, “CARRIER FOR SUSTAINED-RELEASE OF DRUG AND USE THEREOF” (KUNMING QINGCHENG HEALTHCARE TECH LTD., priority 2022, published 2024)
